Test results as given in ChEMBL document CHEMBL1122784, “Antitumor imidazotetrazines. 1. Synthesis and chemistry of 8-carbamoyl-3-(2-chloroethyl)imidazo[5,1-d]-1,2,3,5-tetrazin-4(3 H)-one , a novel broad-spectrum antitumor agent” (J Med Chem, 1984).

Legend:
Mus musculus [1] = test: Compound was tested for mortality in L1210 leukemia implanted BDF1 mice on day 0 after ip administration of 40 mg/kg/day on day 1 out of 5 mice; type: functional; settings: route intraperitoneal
Mus musculus [2] = test: Compound was evaluated for %T/C in P388 leukemia implanted BDF1 mice on day 0 after ip administration of 20 mg/kg/day on day 1-5; type: functional; settings: route intraperitoneal
Mus musculus [3] = test: Compound was evaluated for number of survivors in L1210 leukemia implanted BDF1 mice on day 0 after ip administration of 80 mg/kg/day on day 60 out of 5 mice; type: functional; settings: route intraperitoneal
Mus musculus [4] = test: Compound was tested for mortality in L1210 leukemia implanted BDF1 mice on day 0 after ip administration of 50 mg/kg/day on day 1-9 out of 6 mice; type: functional; settings: route intraperitoneal
[5] = Half-life period in phosphate buffer at pH 7.4 in the dark at 28 degrees celsius.; type: ADME
Mus musculus [6] = test: Compound was tested for mortality in L1210 leukemia implanted BDF1 mice on day 0 after ip administration of 25 mg/kg/day on day 1-9 out of 6 mice; type: functional; settings: route intraperitoneal
Mus musculus [7] = test: Compound was evaluated for number of survivors in P388 leukemia implanted BDF1 mice on day 0 after ip administration of 80 mg/kg/day on day 60 out of 5 mice; type: functional; settings: route intraperitoneal
Mus musculus [8] = test: Compound was evaluated for %T/C in P388 leukemia implanted BDF1 mice on day 0 after ip administration of 5 mg/kg/day on day 1; type: functional; settings: route intraperitoneal
Mus musculus [9] = test: Compound was evaluated for %T/C in L1210 leukemia implanted BDF1 mice on day 0 after ip administration of 10 mg/kg/day on day 1-5; type: functional; settings: route intraperitoneal
Mus musculus [10] = test: Compound was evaluated for number of survivors in L1210 leukemia implanted BDF1 mice on day 0 after ip administration of 50 mg/kg/day on day 60 out of 6 mice; type: functional; settings: route intraperitoneal
Mus musculus [11] = test: Compound was tested for mortality in L1210 leukemia implanted BDF1 mice on day 0 after ip administration of 80 mg/kg/day on day 1 out of 5 mice; type: functional; settings: route intraperitoneal
Mus musculus [12] = test: Compound was tested for mortality in P388 leukemia implanted BDF1 mice on day 0 after ip administration of 40 mg/kg/day on day 1 out of 5 mice; type: functional; settings: route intraperitoneal
Mus musculus [13] = test: Compound was tested for mortality in P388 leukemia implanted BDF1 mice on day 0 after ip administration of 7.5 mg/kg/day on day 1-5 out of 5 mice; type: functional; settings: route intraperitoneal
Mus musculus [14] = test: Compound was evaluated for number of survivors in P388 leukemia implanted BDF1 mice on day 0 after ip administration of 2.5 mg/kg/day on day 60 out of 5 mice; type: functional; settings: route intraperitoneal
Mus musculus [15] = test: Compound was evaluated for number of survivors in L1210 leukemia implanted BDF1 mice on day 0 after ip administration of 7.5 mg/kg/day on day 60 out of 5 mice; type: functional; settings: route intraperitoneal
Mus musculus [16] = test: Compound was evaluated for %T/C in P388 leukemia implanted BDF1 mice on day 0 after ip administration of 50 mg/kg/day on day 1-5; type: functional; settings: route intraperitoneal
Mus musculus [17] = test: Compound was tested for mortality in L1210 leukemia implanted BDF1 mice on day 0 after ip administration of 6.25 mg/kg/day on day 1-9 out of 6 mice; type: functional; settings: route intraperitoneal
Mus musculus [18] = test: Compound was evaluated for number of survivors in L1210 leukemia implanted BDF1 mice on day 0 after ip administration of 40 mg/kg/day on day 60 out of 5 mice; type: functional; settings: route intraperitoneal
Mus musculus [19] = test: Compound was tested for mortality in L1210 leukemia implanted BDF1 mice on day 0 after ip administration of 10 mg/kg/day on days 1-5 out of 5 mice; type: functional; settings: route intraperitoneal
Mus musculus [20] = test: Compound was evaluated for %T/C in P388 leukemia implanted BDF1 mice on day 0 after ip administration of 2.5 mg/kg/day on day 1-5; type: functional; settings: route intraperitoneal
Mus musculus [21] = test: Compound was tested for mortality in P388 leukemia implanted BDF1 mice on day 0 after ip administration of 2.5 mg/kg/day on day 1-5 out of 5 mice; type: functional; settings: route intraperitoneal
Mus musculus [22] = test: Compound was evaluated for number of survivors in L1210 leukemia implanted BDF1 mice on day 0 after ip administration of 20 mg/kg/day on day 60 out of 5 mice; type: functional; settings: route intraperitoneal
Mus musculus [23] = test: Compound was evaluated for %T/C in L1210 leukemia implanted BDF1 mice on day 0 after ip administration of 12.5 mg/kg/day on day 1-9; type: functional; settings: route intraperitoneal
Mus musculus [24] = test: Compound was evaluated for %T/C in L1210 leukemia implanted BDF1 mice on day 0 after ip administration of 3.12 mg/kg/day on day 1-9; type: functional; settings: route intraperitoneal
Mus musculus [25] = test: Compound was evaluated for %T/C in P388 leukemia implanted BDF1 mice on day 0 after ip administration of 20 mg/kg/day on day 1; type: functional; settings: route intraperitoneal
Mus musculus [26] = test: Compound was evaluated for %T/C in P388 leukemia implanted BDF1 mice on day 0 after ip administration of 10 mg/kg/day on day 1-5; type: functional; settings: route intraperitoneal
Mus musculus [27] = test: Compound was tested for mortality in L1210 leukemia implanted BDF1 mice on day 0 after ip administration of 20 mg/kg/day on days 1-5 out of 5 mice; type: functional; settings: route intraperitoneal
Mus musculus [28] = test: Compound was tested for mortality in L1210 leukemia implanted BDF1 mice on day 0 after ip administration of 3.12 mg/kg/day on day 1-9 out of 6 mice; type: functional; settings: route intraperitoneal
Mus musculus [29] = test: Compound was evaluated for %T/C in L1210 leukemia implanted BDF1 mice on day 0 after ip administration of 50 mg/kg/day on day 1-9; type: functional; settings: route intraperitoneal
Mus musculus [30] = test: Compound was tested for mortality in L1210 leukemia implanted BDF1 mice on day 0 after ip administration of 2.5 mg/kg/day on day 1-5 out of 5 mice; type: functional; settings: route intraperitoneal
Mus musculus [31] = test: Compound was tested for mortality in P388 leukemia implanted BDF1 mice on day 0 after ip administration of 80 mg/kg/day on day 1 out of 5 mice; type: functional; settings: route intraperitoneal
Mus musculus [32] = test: Compound was evaluated for %T/C in P388 leukemia implanted BDF1 mice on day 0 after ip administration of 12.5 mg/kg/day on day 1-5; type: functional; settings: route intraperitoneal
Mus musculus [33] = test: Compound was tested for mortality in L1210 leukemia implanted BDF1 mice on day 0 after ip administration of 12.5 mg/kg/day on day 1-9 out of 6 mice; type: functional; settings: route intraperitoneal
Mus musculus [34] = test: Compound was tested for mortality in P388 leukemia implanted BDF1 mice on day 0 after ip administration of 12.5 mg/kg/day on day 1-5 out of 6 mice; type: functional; settings: route intraperitoneal
Mus musculus [35] = test: Compound was tested for mortality in L1210 leukemia implanted BDF1 mice on day 0 after ip administration of 7.5 mg/kg/day on day 1-5 out of 5 mice; type: functional; settings: route intraperitoneal
Mus musculus [36] = test: Compound was tested for mortality in P388 leukemia implanted BDF1 mice on day 0 after ip administration of 10 mg/kg/day on day 1 out of 5 mice; type: functional; settings: route intraperitoneal
Mus musculus [37] = test: Compound was evaluated for number of survivors in L1210 leukemia implanted BDF1 mice on day 0 after ip administration of 5 mg/kg/day on day 60 out of 5 mice; type: functional; settings: route intraperitoneal
Mus musculus [38] = test: Compound was evaluated for %T/C in P388 leukemia implanted BDF1 mice on day 0 after ip administration of 10 mg/kg/day on day 1; type: functional; settings: route intraperitoneal
Mus musculus [39] = test: Compound was evaluated for number of survivors in L1210 leukemia implanted BDF1 mice on day 0 after ip administration of 25 mg/kg/day on day 60 out of 6 mice; type: functional; settings: route intraperitoneal

Compound `NC(=O)c1ncn2c(=O)n(CCCl)nnc12` [MITOZOLOMIDE] has a Mortality (Mus musculus [1]) of 0, a T/C (Mus musculus [2]) of over 555% and a Survivors (Mus musculus [3]) of 0. It also gave a Mortality (Mus musculus [4]) of 0, a half-life [5] of 1.63 h and a Mortality (Mus musculus [6]) of 0. The Survivors (Mus musculus [7]) was 0, the T/C (Mus musculus [8]) was 132% and the T/C (Mus musculus [9]) was over 577%. For the same compound, the Survivors (Mus musculus [10]) was 0, the Mortality (Mus musculus [11]) was 0 and the Mortality (Mus musculus [12]) was 0. The Mortality (Mus musculus [13]) was 0, the Survivors (Mus musculus [14]) was 0 and the Survivors (Mus musculus [15]) was 0. It also gave a T/C (Mus musculus [16]) of 153%, a Mortality (Mus musculus [17]) of 0 and a Survivors (Mus musculus [18]) of 5. For the same compound, the Mortality (Mus musculus [19]) was 0, the T/C (Mus musculus [20]) was 148% and the Mortality (Mus musculus [21]) was 0. For the same compound, the Survivors (Mus musculus [22]) was 1, the T/C (Mus musculus [23]) was over 745% and the T/C (Mus musculus [24]) was 147%. The T/C (Mus musculus [25]) was over 600%, the T/C (Mus musculus [26]) was over 555% and the Mortality (Mus musculus [27]) was 0. For the same compound, the Mortality (Mus musculus [28]) was 0, the T/C (Mus musculus [29]) was 137% and the Mortality (Mus musculus [30]) was 0. The Mortality (Mus musculus [31]) was 0, the T/C (Mus musculus [32]) was 275% and the Mortality (Mus musculus [33]) was 0. It also gave a Mortality (Mus musculus [34]) of 0, a Mortality (Mus musculus [35]) of 0 and a Mortality (Mus musculus [36]) of 0. The Survivors (Mus musculus [37]) was 0, the T/C (Mus musculus [38]) was 164% and the Survivors (Mus musculus [39]) was 6.
